{"source": "patent US20100197610A1", "about": "“FRUCTOSE 1, 6 BISPHOSPHATE - A NOVEL ANTICONVULSANT DRUG” (Baylor College of Medicine, priority 2007, published 2010)", "key": {"[1]": {"assay": "Capillary depletion of brain samples (FDP in stripped vs whole cortex)", "type": "in vivo, Sprague-Dawley rats", "experimental": "Actual levels of FDP were determined by monitoring absorbance of reduced nicotinamide adenine dinucleotide (NADH) and treating the sample with aldolase (EC 4.1.2.13, 45 units mg-1 diluted 1:27 with distilled water), the enzyme which cleaves FDP into dihydroxyacetone phosphate (DAP) and D-glyceraldehyde 3-phosphate (GAP). DAP and GAP are interconverted by the enzyme triosephosphate isomerase (TIM, EC 5.3.3.1, 5290 units mg-1 diluted 1:120 with distilled water). […] After 5 min the absorbance was read 3 times at 340 nm, each reading 3 min apart. The average of these readings is the initial absorbance (Ai). This step removes any DAP or GAP in the sample and determines the baseline absorbance. Aldolase (0.01 ml) was then added and mixed to cleave FDP into DAP and GAP. Nine minutes after addition of the aldolase, the final absorbance (Af) was determined by 3 readings at 340 nm, each 6 minutes apart. The concentration of FDP in the sample was proportional to the difference in the initial and final absorbance. Two moles of NADH are oxidized for each mole of FDP. Blanks and a FDP standard sample were run in parallel with every assay. Each blank had 1.6 ml of the TEA buffer, 1.4 ml water and the mixture of TIM and GDH. […] Levels of FDP in blood were determined per ml, while levels in tissue samples were determined as a function of tissue weight. […]"}, "brain slices": {"test_system": "brain slices", "assay": "Uptake of FDP in brain slices in vitro", "type": "in vitro ADME, Sprague-Dawley rats", "settings": "incubation 1 hour in 500 μg ml-1 FDP, then washed", "experimental": "(§1) Actual levels of FDP were determined by monitoring absorbance of reduced nicotinamide adenine dinucleotide (NADH) and treating the sample with aldolase (EC 4.1.2.13, 45 units mg-1 diluted 1:27 with distilled water), the enzyme which cleaves FDP into dihydroxyacetone phosphate (DAP) and D-glyceraldehyde 3-phosphate (GAP). DAP and GAP are interconverted by the enzyme triosephosphate isomerase (TIM, EC 5.3.3.1, 5290 units mg-1 diluted 1:120 with distilled water). Glycerol-3-phosphate dehydrogenase (GDH, EC 1.1.1.8, 252 units mg-1 diluted 1:100 with distilled water) catalyzes the reduction of DAP by NADH. […] After 5 min the absorbance was read 3 times at 340 nm, each reading 3 min apart. The average of these readings is the initial absorbance (Ai). This step removes any DAP or GAP in the sample and determines the baseline absorbance. […] Nine minutes after addition of the aldolase, the final absorbance (Af) was determined by 3 readings at 340 nm, each 6 minutes apart. The concentration of FDP in the sample was proportional to the difference in the initial and final absorbance. […] Levels of FDP in blood were determined per ml, while levels in tissue samples were determined as a function of tissue weight.\nAdditional experiments determined the uptake of FDP in brain slices in vitro. […]"}, "in vivo": {"assay": "in vivo", "set-up": "species or system rats", "settings": "Sprague-Dawley, rat, po", "experimental": "as §1, with “NADH. For the FDP measurements, 1.5 ml of tetraethyl ammonium buffer (TEA, 0.4 mol l-1, pH 7.6 with EDTA 40 mmol l-1) was added to 1 ml of the sample in a 4 ml cuvette.” for “NADH.”, “weight. […]” for “weight.”"}, "[2]": {"assay": "Preliminary studies of efficacy, trisodium vs dicalcium salt of FDP", "type": "in vivo"}}, "data": [{"compound": "O=C(COP(=O)(O)O)[C@@H](O)[C@H](O)[C@H](O)COP(=O)(O)O", "note": "[F1,6BP, Fructose-1,6-bisphosphate]", "values": [{"measurement": "ratio of FDP in the stripped cortex to the FDP in whole cortex", "setting": "[1]; animals treated with FDP, n=7", "result": "0.91±0.01"}, {"measurement": "levels of FDP in the endothelial cells compared to control", "setting": "[1]; sacrificed ≦2 hours or more than 12 hours after FDP", "result": "no difference"}, {"measurement": "tissue levels of FDP in brain slices", "setting": "brain slices", "result": "0.22 ± 0.013", "unit": "mg/g"}, {"measurement": "concentration at 7 days", "setting": "in vivo", "result": "22.2 ± 3.3", "unit": "µg/mL"}, {"measurement": "FDP levels in the brain", "setting": "in vivo; 7 days", "result": "0.50 ± 0.024", "unit": "mg/g"}, {"measurement": "efficacy of trisodium salt vs dicalcium salt", "setting": "[2]", "result": "no difference in efficacy"}]}]}
